From patent EP4603105A1, “PHARMACEUTICAL COMPOSITION CONTAINING CYCLIC COMPOUND HAVING SELECTIVE KRAS INHIBITORY EFFECT AGAINST HRAS AND NRAS” (CHUGAI SEIYAKU KABUSHIKI KAISHA, priority 2022, dated 2024)
Like-named read-outs stand apart in the source and are kept apart here.

Experiments:
[1] = system: human lung cancer strain NCI-H441; experiment: NCI-H441 cell proliferation inhibitory activity (CellTiter-Glo, 4 days); type: cell-based; conditions: read-out: NCl-H441 IC50
Protocol: A test compound was dispensed into a U-bottom 384-well plate as 40 nL serially diluted dimethyl sulfoxide solutions using a liquid handler Echo (LABCYTE). […] This cell suspension was dispensed in an amount of 40 µL per well into a plate containing the test compound, and cultured at 37°C in a 5% carbon dioxide gas incubator. Four days later, 20 µL of CellTiter-Glo (registered trademark) (Promega) was added to each well and […] was measured. […]

[2] = target: GDP-bound NRAS wild-type protein (Homo sapiens, UniProt P01111); experiment: Binding to NRAS by surface plasmon resonance (SPR), KD and KD ratio to KRAS
Sequence of GDP-bound NRAS wild-type protein (P01111 whole entry): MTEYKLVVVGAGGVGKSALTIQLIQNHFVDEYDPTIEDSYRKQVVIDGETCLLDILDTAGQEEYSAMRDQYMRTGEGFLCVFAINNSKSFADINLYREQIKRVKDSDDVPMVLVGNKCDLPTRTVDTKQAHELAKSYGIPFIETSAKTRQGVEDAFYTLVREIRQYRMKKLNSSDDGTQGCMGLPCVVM
Method in brief: (§1)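 GDP-loaded biotinylated Avi-tag RAS proteins (E. coli-expressed) captured on a Biotin CAPture chip at ~100–300 RU; single-cycle kinetics at 30°C, 100 µL/min, 75 s injections of rising compound concentrations. HBS pH 7.4 running buffer with 1 mM DTT, 10 mM MgCl2, 10 µM GDP, 4% DMSO. KD from 1:1 binding fit.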

HRAS wild-type protein = HRAS wild-type protein (Homo sapiens, UniProt P01112); experiment: Binding to HRAS by surface plasmon resonance (SPR), KD and KD ratio to KRAS
Sequence of HRAS wild-type protein (P01112 whole entry): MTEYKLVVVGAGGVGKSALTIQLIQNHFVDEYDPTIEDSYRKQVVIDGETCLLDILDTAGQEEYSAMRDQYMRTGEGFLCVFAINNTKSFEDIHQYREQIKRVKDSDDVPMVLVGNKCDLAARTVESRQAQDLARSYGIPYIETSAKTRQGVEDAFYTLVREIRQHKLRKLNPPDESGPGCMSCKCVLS
Method in brief: as §1

[3] = target: GDP-bound KRAS wild-type protein (Homo sapiens, UniProt P01116); experiment: Binding to KRAS by surface plasmon resonance (SPR), dissociation constant KD
Sequence of GDP-bound KRAS wild-type protein (P01116 1-188 isoform P01116-2): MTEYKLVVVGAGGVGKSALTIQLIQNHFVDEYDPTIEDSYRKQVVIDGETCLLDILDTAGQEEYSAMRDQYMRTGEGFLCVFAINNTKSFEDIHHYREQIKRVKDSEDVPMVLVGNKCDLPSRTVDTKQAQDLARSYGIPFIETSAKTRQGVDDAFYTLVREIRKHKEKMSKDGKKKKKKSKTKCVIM
Method in brief: as §1

[4] = ratio of KD for GDP-bound NRAS wild-type protein to KD for KRAS
[5] = ratio of KD for HRAS wild-type protein to KD for KRAS
[6] = 50% proliferation inhibitory concentration, four days
[7] = ratio of KD with respect to GDP-bound NRAS wild-type protein to KD with respect to KRAS
[8] = ratio of KD with respect to HRAS wild-type protein to KD with respect to KRAS
[9] = Single Cycle Kinetics, 1:1 binding model

| IC50 ([1]; NCI-H441 cells, 4 days) | Kd ([3]; Single Cycle Kinetics) | IC50 [1, 6] | Kd [3, 9] | Kd ([3]; 1:1 binding model) | Compound | NRAS /KRAS [2, 4] | HRAS /KRAS (HRAS wild-type protein; [5]) | NRAS /KRAS [2, 7] | HRAS /KRAS (HRAS wild-type protein; [8]) |
| --- | --- | --- | --- | --- | --- | --- | --- | --- | --- |
| 47.5 nM | 2.5 nM | – | – | – | CCCO[C@@H]1C[C@H]2C(=O)NC3(CC(C)(C)C3)C(=O)N(C)[C@@H](C3CCCC3)C(=O)N(C)[C@H](C(=O)N(C)CC)CC(=O)N(C)[C@@H](COCC)C(=O)N[C@@H]([C@@H](C)CC)C(=O)N3C[C@@H](C)C[C@H]3C(=O)N(C)[C@H]3C/C=C\CCN(C3=O)[C@@H](Cc3ccc(C(F)(F)F)cc3)C(=O)N(C)CC(=O)N[C@@H](CCc3ccc(C(F)(F)F)c(OC)c3)C(=O)N2C1 [PP3415] | A (a compound having 10 or more and less than 20 is denoted as A) | A (a compound having 10 or more and less than 20 is denoted as A) | – | – |
| 34.3 nM | 0.84 nM | – | – | – | CCO[C@@H]1C[C@H]2C(=O)OC3(CCC3)C(=O)N(C)[C@@H](C3CCCC3)C(=O)N(C)[C@H](C(=O)N(C)C)CC(=O)N(C)[C@@H](CC(C)C)C(=O)N[C@@H]([C@@H](C)CC)C(=O)N3CCC[C@H]3C(=O)N(C)[C@H]3C/C=C\CCN(C3=O)[C@@H](Cc3ccc(C(F)(F)F)cc3)C(=O)N(C)CC(=O)N[C@@H](CCc3ccc(C(F)(F)F)c(OC)c3)C(=O)N2C1 [PP3362] | A (a compound having 10 or more and less than 20 is denoted as A) | A (a compound having 10 or more and less than 20 is denoted as A) | – | – |
| 36.6 nM | 2.3 nM | – | – | – | CC[C@H](C)[C@@H]1NC(=O)[C@H](CC(C)C)N(C)C(=O)C[C@@H](C(=O)N(C)C)N(C)C(=O)[C@H](C2CCCC2)N(C)C(=O)C2(CCCC2)NC(=O)[C@@H]2CCN2C(=O)[C@H](CCc2cc(F)c(C(F)(F)F)c(F)c2)NC(=O)CN(C)C(=O)[C@H](Cc2ccc(C(F)(F)F)cc2)N2CC/C=C(/F)C[C@@H](C2=O)N(C)C(=O)CN(C)C1=O [PP3521] | B (a compound having 3 or more and less than 10 is denoted as B) | B (a compound having 3 or more and less than 10 is denoted as B) | – | – |
| 61 nM | – | – | – | 0.4 nM | CCC(CC)[C@H]1C(=O)N(C)[C@H](C(=O)N(C)C)CC(=O)N(C)[C@@H](COC)C(=O)N[C@@H]([C@@H](C)CC)C(=O)N(C)CC(=O)N(C)[C@H]2C/C=C\CCN(C2=O)[C@@H](Cc2ccc(C(F)F)cc2)C(=O)N(C)CC(=O)N[C@@H](CCc2ccc(Cl)c(Cl)c2)C(=O)N2C[C@H](OC3CCCC3)C[C@H]2C(=O)NC2(CC(C)(C)C2)C(=O)N1C [PP2649] | AA (a compound having 20 or more is denoted as AA) | A (a compound having 10 or more and less than 20 is denoted as A) | – | – |
| 105 nM | 1.1 nM | – | – | – | CCO[C@@H]1C[C@H]2C(=O)NC3(CC(C)(C)C3)C(=O)N(C)[C@@H](C3CCCC3)C(=O)N(C)[C@H](C(=O)N(C)CC)CC(=O)N(C)[C@@H]([C@@H](C)OC)C(=O)N[C@@H]([C@@H](C)CC)C(=O)N3CCC[C@H]3C(=O)N(C)[C@H]3C/C=C\CCN(C3=O)[C@@H](Cc3ccc(C(F)(F)F)cc3)C(=O)N(C)CC(=O)N[C@@H](CCc3ccc(C(F)(F)F)c(Cl)c3)C(=O)N2C1 [PP3174] | AA (a compound having 20 or more is denoted as AA) | A (a compound having 10 or more and less than 20 is denoted as A) | – | – |
| 55.4 nM | 1.4 nM | – | – | – | CCO[C@@H]1C[C@H]2C(=O)NC3(CCCC3)C(=O)N(C)[C@@H](C3CCC3)C(=O)N(C)[C@H](C(=O)N(C)C)CC(=O)N(C)[C@@H](CC(C)C)C(=O)N[C@@H]([C@@H](C)CC)C(=O)N(C)CC(=O)N(C)[C@H]3C/C(F)=C\CCN(C3=O)[C@@H](Cc3ccc(C(F)(F)F)cc3)C(=O)N(C)CC(=O)N[C@@H](CCc3cc(F)c(C(F)(F)F)c(F)c3)C(=O)N2C1 [PP3516] | B (a compound having 3 or more and less than 10 is denoted as B) | B (a compound having 3 or more and less than 10 is denoted as B) | – | – |

The remaining lines, values behind:

| Compound | IC50 ([1]; NCI-H441 cells, 4 days) | Kd ([3]; Single Cycle Kinetics) | IC50 [1, 6] | Kd [3, 9] | Kd ([3]; 1:1 binding model) | NRAS /KRAS [2, 4] | HRAS /KRAS (HRAS wild-type protein; [5]) | NRAS /KRAS [2, 7] | HRAS /KRAS (HRAS wild-type protein; [8]) |
| --- | --- | --- | --- | --- | --- | --- | --- | --- | --- |
| CCCOC[C@H]1C(=O)N[C@@H]([C@@H](C)CC)C(=O)N(C)CC(=O)N(C)[C@H]2C/C=C\CCN(C2=O)[C@@H](Cc2ccc(C)cc2)C(=O)N(C)CC(=O)N[C@@H](CCc2cc(F)c(C(F)(F)F)c(F)c2)C(=O)N2C[C@H](OCC)C[C@H]2C(=O)NC2(CCCC2)C(=O)N(C)[C@@H](C2CCCC2)C(=O)N(C)[C@H](C(=O)N2CCCC2)CC(=O)N1C [PP1401] | – | – | 34.4 nM | 0.26 nM | – | – | – | A (a compound having 10 or more and less than 20 is denoted as A) | A (a compound having 10 or more and less than 20 is denoted as A) |
| CCO[C@@H]1C[C@H]2C(=O)NC3(CCC3)C(=O)N(C)[C@@H](C(CC)CC)C(=O)N(C)[C@H](C(=O)N3CCCC3)CC(=O)N(C)[C@@H](C)C(=O)N[C@@H]([C@@H](C)CC)C(=O)N(C)CC(=O)N(C)[C@H]3C/C=C\CCN(C3=O)[C@@H](CC3CCC(F)(F)CC3)C(=O)N(C)CC(=O)N[C@@H](CCc3cc(F)c(C(F)(F)F)c(F)c3)C(=O)N2C1 [PP1436] | – | – | 47.4 nM | 0.29 nM | – | – | – | AA (a compound having 20 or more is denoted as AA) | A (a compound having 10 or more and less than 20 is denoted as A) |
| CCC[C@H]1C(=O)N[C@@H](CC(C)C)C(=O)N(CCOC)CC(=O)N(C)[C@H]2C/C=C\CCN(C2=O)[C@@H](Cc2ccc(C)cc2)C(=O)N(C)CC(=O)N[C@@H](CCc2cc(F)c(C(F)(F)F)c(F)c2)C(=O)N2C[C@H](OCC)C[C@H]2C(=O)NC2(CC(C)(C)C2)C(=O)N(C)[C@@H](C2CCCC2)C(=O)N(C)[C@H](C(=O)N(C)C)CC(=O)N1C [PP2520] | 210 nM | – | – | – | 3.3 nM | A (a compound having 10 or more and less than 20 is denoted as A) | A (a compound having 10 or more and less than 20 is denoted as A) | – | – |
| CCO[C@@H]1C[C@H]2C(=O)NC3(CCC3)C(=O)N(C)[C@@H](C3CCCC3)C(=O)N(C)[C@H](C(=O)N(C)C)CC(=O)N(C)[C@@H](CC(C)C)C(=O)N[C@@H]([C@@H](C)CC)C(=O)N(C)CC(=O)N(C)[C@H]3C/C=C\CCN(C3=O)[C@@H](Cc3ccc(C(F)(F)F)cc3)C(=O)N(C)CC(=O)N[C@@H](CCc3ccc(Cl)c(Cl)c3)C(=O)N2C1 [PP1251] | – | – | 10.2 nM | 0.18 nM | – | – | – | AA (a compound having 20 or more is denoted as AA) | A (a compound having 10 or more and less than 20 is denoted as A) |
| CCO[C@@H]1C[C@H]2C(=O)NC3(CCC3)C(=O)N(C)[C@@H](C(CC)CC)C(=O)N(C)[C@H](C(=O)N(C)C)CC(=O)N(C)[C@@H](CC3CC3)C(=O)N[C@@H]([C@@H](C)CC)C(=O)N(C)CC(=O)N(C)[C@H]3C/C=C\CCN(C3=O)[C@@H](Cc3ccc(C(F)(F)F)cc3)C(=O)N(C)CC(=O)N[C@@H](CCc3ccc(Cl)c(Cl)c3)C(=O)N2C1 [PP1219] | – | – | 21.4 nM | 0.35 nM | – | – | – | AA (a compound having 20 or more is denoted as AA) | A (a compound having 10 or more and less than 20 is denoted as A) |
| CCC(CC)[C@H]1C(=O)N(C)[C@H](C(=O)N(C)C)CC(=O)N(C)[C@@H](COC)C(=O)N[C@@H]([C@@H](C)CC)C(=O)N(C2CC2)CC(=O)N(C)[C@H]2C/C=C\CCN(C2=O)[C@@H](CC2CCCCC2)C(=O)N(C)CC(=O)N[C@@H](CCc2ccc(Cl)c(Cl)c2)C(=O)N2C[C@H](OC(C)C)C[C@H]2C(=O)NC2(CC(C)(C)C2)C(=O)N1C [PP2517] | 562 nM | – | – | – | 9.3 nM | – | A (a compound having 10 or more and less than 20 is denoted as A) | – | – |
| CCCCCC[C@H]1C(=O)N[C@@H]([C@@H](C)CC)C(=O)N(C)CC(=O)N(C)[C@H]2C/C=C\CCN(C2=O)[C@@H](Cc2ccc(C(F)(F)F)cc2)C(=O)N(C)CC(=O)N[C@@H](CCc2cc(F)c(C(F)(F)F)c(F)c2)C(=O)N2C[C@H](OCC)C[C@H]2C(=O)NC2(CCC2)C(=O)N(C)[C@@H](C2CCCC2)C(=O)N(C)[C@H](C(=O)N(C)C)CC(=O)N1C [PP1242] | – | – | 12.8 nM | 0.076 nM | – | – | – | A (a compound having 10 or more and less than 20 is denoted as A) | A (a compound having 10 or more and less than 20 is denoted as A) |
| CCCCCC[C@H]1C(=O)N[C@@H]([C@@H](C)CC)C(=O)N(C)CC(=O)N(C)[C@H]2C/C=C\CCN(C2=O)[C@@H](Cc2ccc(C(F)(F)F)cc2)C(=O)N(C)CC(=O)N[C@@H](CCc2cc(F)c(C(F)(F)F)c(F)c2)C(=O)N2C[C@H](OCC)C[C@H]2C(=O)NC2(CCC2)C(=O)N(C)[C@@H](C(CC)CC)C(=O)N(C)[C@H](C(=O)N(C)C)CC(=O)N1C [PP1202] | – | – | 24.1 nM | 0.4 nM | – | – | – | – | – |
| CC[C@H](C)[C@@H]1NC(=O)[C@H](CC)N(C)C(=O)C[C@@H](C(=O)N2CCOCC2)N(C)C(=O)[C@H](C2CCCC2)N(C)C(=O)C2(CCCC2)NC(=O)[C@@H]2CCCN2C(=O)[C@H](CCc2cc(F)c(C(F)(F)F)c(F)c2)NC(=O)CN(C)C(=O)[C@H](Cc2ccc(C(F)(F)F)cc2)N2CC(C)[C@@H](C)C[C@@H](C2=O)N(C)C(=O)CN(C)C1=O (some centres unmarked) [PP1350] | – | – | 20.1 nM | – | – | – | – | B (a compound having 3 or more and less than 10 is denoted as B) | B (a compound having 3 or more and less than 10 is denoted as B) |
